Reference: US20170065327A1, “METHODS AND MATERIALS FOR TREATING ELEVATED SYMPATHETIC NERVE ACTIVITY CONDITIONS” (Mayo Foundation for Medical Education and Research, priority 2014, published 2017)

Legend:
[1] = tested on: young and older postmenopausal women; experiment: Autonomic (ganglionic) blockade with trimethaphan camsylate in young and older postmenopausal women: muscle sympathetic nerve activity, arterial pressure, total peripheral resistance; assay type: in vivo, human; details: during trimethaphan
Description: (§1) FIG. 1 is a graph plotting muscle sympathetic nerve activity (MSNA; bursts/min) as measured using a microneurography technique for 24 humans. The dose indicates the amount of trimethaphan in mg/min it took to abolish the sympathetic nerve bursts. The MSNA bursts per minute is the amount of sympathetic bursts that occurred at baseline, prior to drug infusion.
(§2) FIG. 2 is a graph plotting the same dose of trimethaphan in mg/min compared to the difference in mean arterial pressure (MAP) between baseline and at the final trimethaphan dose.
The effect of ganglionic blockade on arterial blood pressure and how this relates to baseline muscle sympathetic nerve activity in 12 young (25±1 years) and 12 older postmenopausal (61±2 years) women were examined. The women were studied before and during autonomic blockade using trimethaphan camsylate. At baseline, muscle sympathetic nerve activity burst frequency and burst incidence were higher in the older women (33±3 versus 15±1 bursts/min; 57±5 versus 25±2 bursts/100 heartbeats, respectively; P<0.05). Muscle sympathetic nerve activity bursts were abolished by trimethaphan within minutes (e.g., between about 6 and about 35 minutes). […] Baseline muscle sympathetic nerve activity was associated with the decrease in mean arterial pressure during trimethaphan (r=−0.74; P<0.05). See, also, Barnes et al., Hypertension, 63:303-308 (2014).

healthy humans = experiment: Brief escalating infusion of trimethaphan camsylate with non-invasive beat-to-beat arterial pressure measurement to distinguish high and low sympathetic activity individuals; assay type: in vivo, human; details: infusion 1-4 mg/minute for 5-10 minutes, 24 healthy humans
Description: as §1, §2
Both normal human subjects and patients with diseases such as resistant hypertension can have very wide ranges of baseline sympathetic activity. The following was developed to distinguish those individuals with high levels of baseline sympathetic activity from individuals with lower levels of baseline sympathetic activity. Trimethaphan camsylate, a ganglionic blocking drug, was administered (e.g., by infusion) at 1-4 mg/minute for 5-10 minutes to 24 healthy humans, while non-invasive beat-to-beat measurements of arterial pressure were made. […] The relationship between the fall in blood pressure and baseline sympathetic activity in a group of about 20-30 healthy women ranging in age from their early 20's to their later 60's was determined (FIGS. 1 and 2). Similar data were obtained using healthy men. […]

[2] = older postmenopausal women (61±2 years, n=12), P<0.01 versus young

## O=C1N(Cc2ccccc2)C2C[S+]3CCCC3C2N1Cc1ccccc1 (stereo not drawn) [trimethaphan, trimethaphan camsylate]
[1]; 12 young and 12 older postmenopausal women
  Muscle sympathetic nerve activity bursts: abolished
[1]; [2]
  decrease in mean arterial pressure: −29±2 mm Hg
  decrease in total peripheral resistance: −10±1 mm Hg/L per minute
[1]; young women (25±1 years, n=12)
  decrease in mean arterial pressure: −9±2 mm Hg
  decrease in total peripheral resistance: −5±1 mm Hg/L per minute
Healthy humans
  fall in blood pressure during brief escalating doses: directly related to baseline sympathetic activity
